Experimental data: PMC7594867 (Journal of Enzyme Inhibition and Medicinal Chemistry, 2020)
Read-outs that look alike come from different tables or passages of the source.

What was measured:
[1] = test system: MCF-7, A2780, and HT29 cell lines; assay: MTT cytotoxicity assay, three cancer cell lines taken together; assay type: cell-based
[2] = test system: HT29; assay: MTT cytotoxicity assay, HT29; assay type: cell-based; details: for IC50: Homo sapiens, HT-29, 72 h, read-out: IC50 ± SD, HT29; for Selectivity index, HT29: IC50 MRC-5 / IC50 HT29
[3] = test system: MCF-7; assay: MTT cytotoxicity assay, MCF-7; assay type: cell-based; details: for IC50: Homo sapiens, MCF7, 72 h, read-out: IC50 ± SD, MCF-7; for Selectivity index, MCF-7: IC50 MRC-5 / IC50 MCF-7
[4] = test system: normal human foetal lung fibroblast (MRC-5); assay: MTT cytotoxicity assay, normal MRC-5 cells; assay type: cell-based; details: MRC5, 72 h, read-out: IC50 (µM ± SD) MRC-5
[5] = test system: A2780; assay: MTT cytotoxicity assay, A2780; assay type: cell-based; details: for IC50: Homo sapiens, A2780, 72 h, read-out: IC50 ± SD, A2780; for Selectivity index, A2780: IC50 MRC-5 / IC50 A2780
[6] = test system: MCF-7 cells; assay: Annexin V-FITC/PI staining apoptosis assay; assay type: cell-based; details: MCF-7, 24 h, control 0%
[7] = target: CDK-2 (Homo sapiens, UniProt P24941); assay: CDK-2 inhibition, ADP-Glo kinase assay; assay type: biochemical
[8] = test system: MCF-7 cells; assay: Cell cycle analysis; assay type: cell-based; details: for effect on cell cycle: MCF-7, 24 h, 1, 5, 10 µM; for number of cells in the G1 cell-cycle phase: MCF-7, 24 h, highest increase, concentration not given
[9] = 72 h, read-out: IC50, range over the three cancer cell lines

Structure (SMILES) | IC50 [1, 9] [nM] | Selectivity index, range over the three cell lines ([1]; IC50 MRC-5 / IC50 cancer cell line) | IC50 ([1]; read-out: Average IC50) [nM] | IC50 [2] [nM] | Selectivity index, HT29 [2] | IC50 [3] [nM] | Selectivity index, MCF-7 [3] | IC50 [4] [µM] | IC50 [5] [nM] | Selectivity index, A2780 [5] | apoptotic events ([6]; 1 µM) [%] | IC50 [7] [nM] | effect on cell cycle [8] | number of cells in the G1 cell-cycle phase [8] [%] | apoptotic events ([6]; 5 µM) [%] | apoptotic events ([6]; 10 µM) [%]
CCCCCCNC(=O)Nc1c(C#N)c2n(c1C(=O)Nc1ccccc1)CCC2 [Compound 16a, 7-Cyano-6-(3-hexylureido)-N-phenyl-2,3-dihydro-1H-pyrrolizine-5-carboxamide] | 350 to 850 | 13.95–33.89 | 600 | 850 ± 70 | 13.95 | 590 ± 10 | 20.10 | 11.9 ± 0.87 | 350 ± 180 | 33.89 | – | – | – | – | – | –
CCCCCCNC(=O)Nc1c(C#N)c2n(c1C(=O)Nc1ccc(C)cc1)CCC2 [Compound 16b, 7-Cyano-6-(3-hexylureido)-N-(p-tolyl)-2,3-dihydro-1H-pyrrolizine-5-carboxamide] | – | – | 990 | 1560 ± 140 | 1.70 | 1170 ± 310 | 2.26 | 2.65 ± 0.29 | 230 ± 40 | 11.52 | – | – | – | – | – | –
CCCCCCNC(=O)Nc1c(C#N)c2n(c1C(=O)Nc1ccc(Cl)cc1)CCC2 [Compound 16c, N-(4-Chlorophenyl)-7-cyano-6-(3-hexylureido)-2,3-dihydro-1H-pyrrolizine-5-carboxamide] | – | – | 12600 | 3100 ± 100 | 0.24 | 34100 ± 4610 | 0.02 | 0.75 ± 0.14 | 530 ± 100 | 1.42 | – | – | – | – | – | –
COc1ccc(NC(=O)Nc2c(C#N)c3n(c2C(=O)Nc2ccccc2)CCC3)cc1 [Compound 17a, 7-Cyano-6-(3-(4-methoxyphenyl)ureido)-N-phenyl-2,3-dihydro-1H-pyrrolizine-5-carboxamide] | – | – | 2210 | 5290 ± 1510 | 0.43 | 900 ± 110 | 2.56 | 2.3 ± 0.15 | 440 ± 30 | 5.23 | – | – | – | – | – | –
COc1ccc(NC(=O)Nc2c(C#N)c3n(c2C(=O)Nc2ccc(C)cc2)CCC3)cc1 [Compound 17b, 7-Cyano-6-(3-(4-methoxyphenyl)ureido)-N-(p-tolyl)-2,3-dihydro-1H-pyrrolizine-5-carboxamide] | – | – | 1570 | 1440 ± 170 | 4.31 | 2850 ± 310 | 2.18 | 6.2 ± 0.88 | 420 ± 70 | 14.76 | – | – | – | – | – | –
COc1ccc(NC(=O)Nc2c(C#N)c3n(c2C(=O)Nc2ccc(Cl)cc2)CCC3)cc1 [Compound 17c, N-(4-Chlorophenyl)-7-cyano-6-(3-(4-methoxyphenyl)ureido)-2,3-dihydro-1H-pyrrolizine-5-carboxamide] | – | – | 1440 | 420 ± 160 | 9.05 | 3360 ± 830 | 1.13 | 3.8 ± 0.25 | 540 ± 20 | 7.04 | – | – | – | – | – | –
N#Cc1c(NC(=O)Nc2ccc(F)cc2)c(C(=O)Nc2ccccc2)n2c1CCC2 [Compound 18a, 7-Cyano-6-(3-(4-fluorophenyl)ureido)-N-phenyl-2,3-dihydro-1H-pyrrolizine-5-carboxamide] | – | – | 10200 | 9130 ± 850 | 1.17 | 10760 ± 70 | 0.99 | 10.7 ± 0.61 | 10600 ± 2830 | 1.01 | – | – | – | – | – | –
Cc1ccc(NC(=O)c2c(NC(=O)Nc3ccc(F)cc3)c(C#N)c3n2CCC3)cc1 [Compound 18b, 7-Cyano-6-(3-(4-fluorophenyl)ureido)-N-(p-tolyl)-2,3-dihydro-1H-pyrrolizine-5-carboxamide] | – | – | 3620 | 9710 ± 2250 | 0.15 | 190 ± 20 | 7.68 | 1.46 ± 0.42 | 970 ± 140 | 1.51 | 20 | 115 ± 3.2 | G1 -S cell cycle arrest | 53 | – | –
N#Cc1c(NC(=O)Nc2ccc(F)cc2)c(C(=O)Nc2ccc(Cl)cc2)n2c1CCC2 [Compound 18c, N-(4-Chlorophenyl)-7-cyano-6-(3-(4-fluorophenyl)ureido)-2,3-dihydro-1H-pyrrolizine-5-carboxamide] | – | – | 630 | 1380 ± 20 | 0.07 | 290 ± 190 | 0.34 | 0.1 ± 0.01 | 210 ± 100 | 0.48 | – | – | – | – | – | –
N#Cc1c(NC(=O)Nc2cccc3ccccc23)c(C(=O)Nc2ccccc2)n2c1CCC2 [Compound 19a, 7-Cyano-6-(3-(naphthalen-1-yl)ureido)-N-phenyl-2,3-dihydro-1H-pyrrolizine-5-carboxamide] | – | – | 310 | 200 ± 10 | 13.35 | 400 ± 420 | 6.68 | 2.67 ± 0.37 | 320 ± 170 | 8.34 | – | 25.5 ± 1.7 | G1 -S cell cycle arrest | 70 | – | –
Cc1ccc(NC(=O)c2c(NC(=O)Nc3cccc4ccccc34)c(C#N)c3n2CCC3)cc1 [Compound 19b, 7-Cyano-6-(3-(naphthalen-1-yl)ureido)-N-(p-tolyl)-2,3-dihydro-1H-pyrrolizine-5-carboxamide] | – | – | 2170 | 680 ± 140 | 2.26 | 440 ± 90 | 3.50 | 1.54 ± 0.2 | 5390 ± 1130 | 0.29 | – | – | – | – | – | –
N#Cc1c(NC(=O)Nc2cccc3ccccc23)c(C(=O)Nc2ccc(Cl)cc2)n2c1CCC2 [Compound 19c, N-(4-Chlorophenyl)-7-cyano-6-(3-(naphthalen-1-yl)ureido)-2,3-dihydro-1H-pyrrolizine-5-carboxamide] | – | – | 2300 | 2560 ± 700 | 1.05 | 1270 ± 10 | 2.11 | 2.68 ± 0.37 | 3070 ± 1500 | 0.87 | – | – | – | – | – | –
N#Cc1c(NC(=S)Nc2cccc3ccccc23)c(C(=O)Nc2ccccc2)n2c1CCC2 [Compound 20a, 7-Cyano-6-(3-(naphthalen-1-yl)thioureido)-N-phenyl-2,3-dihydro-1H-pyrrolizine-5-carboxamide] | – | – | 430 | 720 ± 120 | 0.60 | 420 ± 150 | 1.02 | 0.43 ± 0.13 | 160 ± 10 | 2.69 | 38 | 77.9 ± 2.2 | G1 -S cell cycle arrest | 57 | 39 | 47
Cc1ccc(NC(=O)c2c(NC(=S)Nc3cccc4ccccc34)c(C#N)c3n2CCC3)cc1 [Compound 20b, 7-Cyano-6-(3-(naphthalen-1-yl)thioureido)-N-(p-tolyl)-2,3-dihydro-1H-pyrrolizine-5-carboxamide] | – | – | 3610 | 3830 ± 580 | 0.52 | 4970 ± 420 | 0.40 | 2 ± 0.75 | 2040 ± 950 | 0.98 | – | – | – | – | – | –
N#Cc1c(NC(=S)Nc2cccc3ccccc23)c(C(=O)Nc2ccc(Cl)cc2)n2c1CCC2 [Compound 20c, N-(4-chlorophenyl)-7-cyano-6-(3-(naphthalen-1-yl)thioureido)-2,3-dihydro-1H-pyrrolizine-5-carboxamide] | – | – | 2750 | 3670 ± 1650 | 0.80 | 1760 ± 950 | 1.66 | 2.92 ± 0.6 | 2810 ± 980 | 1.04 | – | – | – | – | – | –
CS(=O)(=O)CCNCc1ccc(-c2ccc3ncnc(Nc4ccc(OCc5cccc(F)c5)c(Cl)c4)c3c2)o1 [Lapatinib, lapatinib, reference compound] | 6770 to 12500 | – | 9920 | 12500 ± 1270 | 0.54 | 6770 ± 1160 | 1.00 | 6.74 ± 1.22 | 10500 ± 760 | 0.64 | – | – | – | – | – | –
